Reference: patent US8754115B2, “Fungicidal pyrazoles” (E I du Pont de Nemours and Company, priority 2010, dated 2014)
Marks after values point to notes of the source that are not given here.

Tests used:
Format in all cases: in vivo
[1] = test system: Puccinia recondite f. sp. tritici; test: Test E2: preventive spray on wheat seedlings, visual disease rating (wheat leaf rust)
Outline: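 Test suspension (acetone 3% of volume, acetone/water 50/50, 250 ppm Trem 014), 200 ppm unless starred (40 ppm), sprayed to run-off on wheat seedlings; inoculated next day with P. recondita spores. 24 h saturated atmosphere at 20 °C, then 7 days at 20 °C; visual rating, 100 = full control vs untreated.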

[2] = test system: Puccinia recondite f. sp. tritici; test: Test E1: curative spray on wheat seedlings after inoculation, visual disease rating (wheat leaf rust)
Text: (§1) General protocol for preparing test suspensions for Tests A-F: the test compounds were first dissolved in acetone in an amount equal to 3% of the final volume and then suspended at the desired concentration (in ppm) in acetone and purified water (50/50 mix by volume) containing 250 ppm of the surfactant Trem® 014 (polyhydric alcohol esters). The resulting test suspensions were then used in Tests A-F. Spraying a 200 ppm test suspension to the point of run-off on the test plants was the equivalent of a rate of 800 g/ha. Unless otherwise indicated, the rating values indicate a 200 ppm test suspension was used. (An asterisk “*” next to the rating value indicates a 40 ppm test suspension was used.)
Wheat seedlings were inoculated with a spore suspension of Puccinia recondite f. sp. tritici (the causal agent of wheat leaf rust) and incubated in a saturated atmosphere at 20° C. for 24 h, and then moved to a growth chamber at 20° C. for 2 days. After 2 days, the test suspension was sprayed to the point of run-off on the wheat seedlings, and then the seedlings were moved back to the growth chamber at 20° C. for 6 days. Upon removal, visual disease ratings were made.
(§2) Results for Tests A-F are given in Table A. In the Table, a rating of 100 indicates 100% disease control and a rating of 0 indicates no disease control (relative to the controls). A dash (-) indicates no test results. An asterisk “*” next to the rating value indicates a 40 ppm test suspension was used.

Septoria nodorum = test: Test C: preventive spray on wheat seedlings, visual disease rating (Septoria glume blotch)
Text: as §1
The test suspension was sprayed to the point of run-off on wheat seedlings. The following day the seedlings were inoculated with a spore suspension of Septoria nodorum (the causal agent of Septoria glume blotch) and incubated in a saturated atmosphere at 24° C. for 48 h, and then moved to a growth chamber at 20° C. for 6 days, after which time visual disease ratings were made.
as §2

Septoria tritici = test: Test D: preventive spray on wheat seedlings, visual disease rating (wheat leaf blotch)
Outline: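 Wheat seedlings were sprayed to run-off with a 200 ppm suspension (equal to 800 g/ha), or 40 ppm where marked with an asterisk, and inoculated with Septoria tritici spores the next day. Plants were kept at 24 °C in saturated air for 48 h, then at 20 °C for 19 days. Disease control was rated visually from 0 to 100 relative to controls.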

Alternaria solani = test: Test B: preventive spray on tomato seedlings, visual disease rating (tomato early blight)
Text: as §1
The test suspension was sprayed to the point of run-off on tomato seedlings. The following day the seedlings were inoculated with a spore suspension of Alternaria solani (the causal agent of tomato early blight) and incubated in a saturated atmosphere at 27° C. for 48 h, and then moved to a growth chamber at 20° C. for 5 days, after which time visual disease ratings were made.
as §2

[3] = test system: Blumeria graminis f. sp. tritici; test: Test F: preventive spray on wheat seedlings, visual disease rating (wheat powdery mildew)
Outline: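 Compound in acetone/water (50/50) with 250 ppm surfactant, sprayed to run-off on wheat seedlings at 200 ppm (≈800 g/ha) or, where marked, 40 ppm. Seedlings dusted with spores the next day, kept 8 days at 20° C., then rated visually as % disease control versus untreated plants.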

Botrytis cinerea = test: Test A: preventive spray on tomato seedlings, visual disease rating (tomato Botrytis)
Outline: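 Tomato seedlings sprayed to run-off with 200 ppm suspension (800 g/ha; asterisk marks 40 ppm), inoculated next day with Botrytis cinerea spores, held 48 h saturated at 20 °C then 3 days at 24 °C. Visual rating: 100 = full disease control, 0 = none, relative to controls.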

[4] = no asterisk: standard test suspension, not 40 ppm
[5] = asterisk: 40 ppm test suspension
[6] = no asterisk: standard test suspension, not 40 ppm, 100 = 100% disease control, 0 = none

Row | SMILES | Test E2 rating (% disease control) [1, 4] [%] | Test E1 rating (% disease control) [2, 4] [%] | Test C rating (% disease control) (Septoria nodorum; [4]) [%] | Test D rating (% disease control) (Septoria tritici; [4]) [%] | Test B rating (% disease control) (Alternaria solani; [4]) [%] | Test F rating (% disease control) [3, 4] [%] | Test E2 rating (% disease control) [1, 5] | Test C rating (% disease control) (Septoria nodorum; [5]) | Test D rating (% disease control) (Septoria tritici; [5]) | Test B rating (% disease control) (Alternaria solani; [5]) | Test F rating (% disease control) [3, 5] | other results
1 | Cc1nn(C)c(-c2ccc(Cl)cc2Cl)c1C(=O)c1ccc(F)cc1F [compound 89] | 89 | 0 | 0 | 93 | 0 | 100 | – | – | – | – | – | –
2 | Cc1nn(C)c(-c2c(Cl)cccc2Cl)c1C(O)c1ccc(Cl)cc1 (centres unmarked) [compound 77] | 79 | 0 | 0 | 99 | 93 | 89 | – | – | – | – | – | –
3 | Cc1nn(C)c(-c2c(F)cccc2F)c1C(F)c1ccc(Cl)cc1Cl (centres unmarked) [Compound 92] | – | – | – | – | – | – | 99* % | 94* % | 100* % | 99* % | 100* % | Test E1 rating (% disease control) [2, 5]: 74* %
4 | Cc1nn(C)c(-c2ccccc2I)c1C(=O)c1ccc(F)cc1Br [compound 81] | 0 | – | 0 | 0 | 46 | 99 | – | – | – | – | – | Test A rating (% disease control) (Botrytis cinerea; [6]): 54%
5 | Cc1nn(C)c(-c2ccc(F)cc2Br)c1C(O)c1ccc(F)cc1F (centres unmarked) [compound 76] | 100 | 99 | 60 | 100 | 99 | 100 | – | – | – | – | – | –
6 | Cc1nn(C)c(-c2ccccc2I)c1C(O)c1ccc(F)cc1Br (centres unmarked) [compound 88] | 68 | 0 | 0 | 99 | 0 | 89 | – | – | – | – | – | –
7 | Cc1nn(C)c(-c2c(F)cccc2Cl)c1C(O)c1ccc(F)cc1Br (centres unmarked) [compound 37] | 100 | – | 100 | 100 | 99 | 100 | – | – | – | – | – | Test A rating (% disease control) (Botrytis cinerea; [6]): 100%
8 | Cc1nn(C)c(-c2c(F)cccc2Cl)c1C(F)c1c(F)cc(F)cc1F (centres unmarked) [Compound 75] | – | – | – | – | – | – | 100* % | 87* % | 100* % | 100* % | 99* % | Test E1 rating (% disease control) [2, 5]: 74* %
9 | Cc1nn(C)c(-c2ccc(F)cc2Cl)c1Nc1ccc(F)cc1F [compound 49] | – | – | – | – | – | – | 74* % | 0* % | 96* % | 0* % | 87* % | Test A rating (% disease control) (Botrytis cinerea; [5]): 100* %
10 | Cc1nn(C)c(-c2c(Cl)cccc2Cl)c1C(O)c1ccc(F)cc1F (centres unmarked) [compound 74] | 99 | 0 | 92 | 99 | 100 | 98 | – | – | – | – | – | –
11 | Cc1nn(C)c(-c2c(Cl)cccc2Cl)c1C(O)c1c(F)cc(F)cc1F (centres unmarked) [compound 70] | 100 | 94 | 60 | 100 | 99 | 99 | – | – | – | – | – | –
12 | Cn1nc(Br)c(C(=O)c2ccc(F)cc2F)c1-c1ccc(F)cc1Cl [compound 48] | 0 | – | 0 | 99 | 0 | 0 | – | – | – | – | – | Test A rating (% disease control) (Botrytis cinerea; [6]): 26%
13 | Cc1nn(C)c(-c2ccc(F)cc2F)c1C(O)c1ccc(F)cc1Cl (centres unmarked) [compound 71] | – | – | – | – | – | – | 99* % | 73* % | 100* % | 78* % | 99* % | Test E1 rating (% disease control) [2, 5]: 88* %
14 | Cc1nn(C)c(-c2c(Cl)cncc2Cl)c1C(=O)c1ccc(F)cc1Cl [compound 96] | – | – | – | – | – | – | 0* % | 0* % | 0* % | 0* % | 26* % | Test A rating (% disease control) (Botrytis cinerea; [5]): 60* %
15 | COc1nn(C)c(-c2c(F)cccc2Cl)c1C(O)c1c(F)ccc(F)c1Cl (centres unmarked) [compound 144] | – | – | – | – | – | – | 100* % | 0* % | 100* % | – | 98* % | Test A rating (% disease control) (Botrytis cinerea; [5]): 78* %
16 | Cc1nn(C)c(-c2c(F)cccc2Cl)c1C(O)c1ccc(Cl)cc1Cl (centres unmarked) [compound 90] | – | – | – | – | – | 100 | 100* % | 99* % | 100* % | 100* % | – | Test E1 rating (% disease control) [2, 5]: 74* %
17 | Cc1nn(C)c(-c2ccc(F)cc2Br)c1C(=O)c1ccc(F)cc1F [compound 73] | – | – | – | – | – | – | 0* % | 0* % | 14* % | 60* % | 34* % | Test E1 rating (% disease control) [2, 5]: 0* %
18 | Cc1nn(C)c(-c2ccc(F)cc2F)c1C(O)c1ccc(F)cc1F (stereo not drawn) [Compound 72, α-(2,4-difluorophenyl)-5-(2,4-difluorophenyl)-1,3-dimethyl-1H-pyrazole-4-methanol] | – | – | – | – | – | – | – | – | – | – | – | pest or weed control at 40 ppm ([1]; 192 h, asterisk: 40 ppm test suspension): 96%; pest or weed control at 40 ppm ([2]; 144 h, asterisk: 40 ppm test suspension): 18%; pest or weed control at 40 ppm (Septoria nodorum; Parastagonospora nodorum, 192 h, asterisk: 40 ppm test suspension): 0%; pest or weed control at 40 ppm (Septoria tritici; Zymoseptoria tritici, 504 h, asterisk: 40 ppm test suspension): 100%; pest or weed control at 40 ppm (Alternaria solani; Alternaria solani, 168 h, asterisk: 40 ppm test suspension): 53%; pest or weed control at 40 ppm ([3]; Blumeria graminis, 192 h, asterisk: 40 ppm test suspension): 98%
